# Experimental data published in patent US6337346B1 (University of North Carolina at Chapel Hill, priority 1998, dated 2002).
# Where two headings read alike, the source gives them in different places.
# What was measured:
# OVCAR-3 = experiment: NCI in vitro disease-oriented tumor cells screen; format: cell-based, human; details: Homo sapiens, Ovarian Cancer OVCAR-3, average of at least two testings, read-out: Cytotoxicity log GI50 (converted)
# Text: (§1) (Activity is defined as log GI50<−4 where GI50 is the molar concentration causing 50% cell growth inhibition).
# MOLT-4 [1] = experiment: NCI in vitro human tumor cell line assay; details: MOLT-4, read-out: Cytotoxicity log GI50 (converted)
# MCF 7/ADR-RES = experiment: NCI in vitro human tumor cell line assay; format: cell-based; details: MCF7, Breast Cancer MCF 7/ADR-RES, Table 3 (numbering of Examples 14-16), average of at least two testings, read-out: Cytotoxicity log GI50 (converted)
# MCF 7 = experiment: NCI in vitro human tumor cell line assay; format: cell-based; details: MCF7, Breast Cancer MCF 7, Table 3 (numbering of Examples 14-16), average of at least two testings, read-out: Cytotoxicity log GI50 (converted)
# HCT-8 = experiment: Preliminary cytotoxicity testing of 6 and 16 (Table 1); format: cell-based; details: Homo sapiens, Table 1, preliminary testing
# KB = experiment: as above; format: cell-based; details: Homo sapiens, Table 1, preliminary testing
# NCI-H460 = experiment: NCI in vitro human tumor cell line assay; format: cell-based; details: Non-Small Cell Lung Cancer NCI-H460, Table 3 (numbering of Examples 14-16), average of at least two testings, read-out: Cytotoxicity log GI50 (converted)
# MDA-MB-435 = experiment: NCI in vitro disease-oriented tumor cells screen; format: cell-based, human; details: Homo sapiens, Breast Cancer MDA-MB-435, average of at least two testings, read-out: Cytotoxicity log GI50 (converted)
# Text: as §1
# HCT-15 = experiment: NCI in vitro human tumor cell line assay; format: cell-based; details: Colon Cancer HCT-15, Table 3 (numbering of Examples 14-16), average of at least two testings, read-out: Cytotoxicity log GI50 (converted)
# MOLT-4 [2] = details: human
# SK-MEL-5 = experiment: NCI in vitro disease-oriented tumor cells screen; format: cell-based, human; details: Homo sapiens, Melanoma SK-MEL-5, average of at least two testings, read-out: Cytotoxicity log GI50 (converted)
# Text: as §1
# A549 = experiment: Preliminary cytotoxicity testing of 6 and 16 (Table 1); format: cell-based; details: Homo sapiens, Table 1, preliminary testing
# SNB-19 = experiment: NCI in vitro human tumor cell line assay; format: cell-based; details: CNS Cancer SNB-19, Table 3 (numbering of Examples 14-16), average of at least two testings, read-out: Cytotoxicity log GI50 (converted)
# NCI-H552 = experiment: NCI in vitro human tumor cell line assay; format: cell-based; details: Non-Small Cell Lung Cancer NCI-H552, Table 3 (numbering of Examples 14-16), average of at least two testings, read-out: Cytotoxicity log GI50 (converted)
# LOX IMVI = experiment: NCI in vitro disease-oriented tumor cells screen; format: cell-based, human; details: Homo sapiens, Melanoma LOX IMVI, average of at least two testings, read-out: Cytotoxicity log GI50 (converted)
# Text: as §1
# KB cells = experiment: Preliminary KB cell assay (cytotoxicity); format: cell-based; details: Homo sapiens, numbering of Examples 14-16, read-out: ED50 (the source's name)
# Protocol: Many anthraquinones, including mitoxantrone (1), show antineoplastic activity (Zee-Cheng, R. Y.; Podrebarac, E. G; Menon, C. S.; Cheng, C. C. J. Med. Chem. 1979, 22, 501-505). In addition, the natural product 2-acetyl-4H, 9H-naphtho[2,3-b]furan-4,9-dione (2) isolated from Tabebuia cassinoids (Lam.) DC.
# The unsubstituted (3), two mono-acetyl (5, 6), and two di-acetyl (9, 10) derivatives were tested for cytotoxicity in a preliminary KB cell assay.
# [3] = system: several leukemia cell lines; experiment: Preliminary cytotoxicity testing, summary in words; format: cell-based
# human tumor cell lines [4] = experiment: NCI in vitro screen, mean over all cell lines tested; details: Homo sapiens, read-out: Cytotoxicity log GI50, Mean Value (converted)
# Text: as §1
# NCI-H23 = experiment: NCI in vitro disease-oriented tumor cells screen; format: cell-based, human; details: Homo sapiens, Non-Small Cell Lung Cancer NCI-H23, average of at least two testings, read-out: Cytotoxicity log GI50 (converted)
# Text: as §1
# SW-620 = experiment: NCI in vitro human tumor cell line assay; format: cell-based; details: Colon Cancer SW-620, Table 3 (numbering of Examples 14-16), average of at least two testings, read-out: Cytotoxicity log GI50 (converted)
# MDA-N = experiment: NCI in vitro disease-oriented tumor cells screen; format: cell-based, human; details: Homo sapiens, Breast Cancer MDA-N, average of at least two testings, read-out: Cytotoxicity log GI50 (converted)
# Text: as §1
# L-1210 = experiment: Preliminary cytotoxicity testing of 6 and 16 (Table 1); format: cell-based; details: Mus musculus, L1210, Table 1, preliminary testing
# SF-539 = experiment: NCI in vitro human tumor cell line assay; format: cell-based; details: CNS Cancer SF-539, Table 3 (numbering of Examples 14-16), average of at least two testings, read-out: Cytotoxicity log GI50 (converted)
# MCF-7 = experiment: Preliminary cytotoxicity testing of 6 and 16 (Table 1); format: cell-based; details: Homo sapiens, MCF7, Table 1, preliminary testing
# IGROV1 = experiment: NCI in vitro human tumor cell line assay; format: cell-based; details: IGROV-1, Ovarian Cancer IGROV1, Table 3 (numbering of Examples 14-16), average of at least two testings, read-out: Cytotoxicity log GI50 (converted)
# CAKI-1 = experiment: Preliminary cytotoxicity testing of 6 and 16 (Table 1); format: cell-based; details: Homo sapiens, Table 1, preliminary testing
# CCRF-CEM = experiment: NCI in vitro human tumor cell line assay; format: cell-based; details: Leukemia CCRF-CEM, Table 3 (numbering of Examples 14-16), average of at least two testings, read-out: Cytotoxicity log GI50 (converted)
# P-399 = experiment: Preliminary cytotoxicity testing of 6 and 16 (Table 1); format: cell-based; details: Table 1, preliminary testing
# MALME-3M = experiment: NCI in vitro disease-oriented tumor cells screen; format: cell-based, human; details: Homo sapiens; Melanoma MALME-3M; Table 2; average of at least two testings; read-out: Cytotoxicity log GI50 (converted)
# Text: as §1
# human tumor cell lines [5] = system: human tumor cell lines
# Text: as §1
# HL-60(TB) = experiment: NCI in vitro disease-oriented tumor cells screen; format: cell-based, human; details: Homo sapiens; Leukemia HL-60(TB); Table 2; average of at least two testings; read-out: Cytotoxicity log GI50 (converted)
# Text: as §1
# OVCAR-8 = experiment: NCI in vitro disease-oriented tumor cells screen; format: cell-based, human; details: Homo sapiens; Ovarian Cancer OVCAR-8; Table 2; average of at least two testings; read-out: Cytotoxicity log GI50 (converted)
# Text: as §1
# melanoma cell lines = experiment: NCI in vitro screen, melanoma cell lines as a group; format: cell-based, human; details: numbering of Examples 1-13
# Text: as §1
# SK-MEL-2 [6] = experiment: NCI in vitro disease-oriented tumor cells screen; format: cell-based, human; details: Homo sapiens; Melanoma SK-MEL-2; Table 2; average of at least two testings; read-out: Cytotoxicity log GI50 (converted)
# Text: as §1
# UACC-257 = experiment: NCI in vitro disease-oriented tumor cells screen; format: cell-based, human; details: Homo sapiens; Melanoma UACC-257; Table 2; average of at least two testings; read-out: Cytotoxicity log GI50 (converted)
# Text: as §1
# HS 578T = experiment: NCI in vitro disease-oriented tumor cells screen; format: cell-based, human; details: Homo sapiens; Breast Cancer HS 578T; Table 2; average of at least two testings; read-out: Cytotoxicity log GI50 (converted)
# Text: as §1
# SK-MEL-28 = experiment: NCI in vitro disease-oriented tumor cells screen; format: cell-based, human; details: Homo sapiens; Melanoma SK-MEL-28; Table 2; average of at least two testings; read-out: Cytotoxicity log GI50 (converted)
# Text: as §1
# M14 = experiment: NCI in vitro disease-oriented tumor cells screen; format: cell-based, human; details: Homo sapiens; Melanoma M14; Table 2; average of at least two testings; read-out: Cytotoxicity log GI50 (converted)
# Text: as §1
# BT-549 = experiment: NCI in vitro disease-oriented tumor cells screen; format: cell-based, human; details: Homo sapiens; Breast Cancer BT-549; Table 2; average of at least two testings; read-out: Cytotoxicity log GI50 (converted)
# Text: as §1
# UACC-62 = experiment: NCI in vitro disease-oriented tumor cells screen; format: cell-based, human; details: Homo sapiens; Melanoma UACC-62; Table 2; average of at least two testings; read-out: Cytotoxicity log GI50 (converted)
# Text: as §1
# SK-MEL-2 [7] = experiment: Preliminary cytotoxicity testing of 6 and 16 (Table 1); format: cell-based; details: Homo sapiens, Table 1, preliminary testing
# [8] = Table 3 (numbering of Examples 14-16)
# [9] = Table 2 (numbering of Examples 1-13)
structure (smiles),measurement,setting,value
"CC(=O)c1csc2c1C(=O)c1ccccc1C2=O [Compound 6, 3-Acetyl-naphtho[2,3-b]thiophene-4,9-dione]",GI50,OVCAR-3; [8],3550 nM
same,GI50,MOLT-4 [1],< 10 nM
same,GI50,MCF 7/ADR-RES,2880 nM
same,GI50,MCF 7,2090 nM
same,IC50,HCT-8,0.06 µg/mL
same,IC50,KB,0.058 µg/mL
same,GI50,NCI-H460,1320 nM
same,GI50,MDA-MB-435; [8],324 nM
same,GI50,HCT-15,17400 nM
same,Cytotoxicity log GI50,MOLT-4 [2],<−8.00 M
same,GI50,SK-MEL-5; [8],170 nM
same,IC50,A549,0.048 µg/mL
same,GI50,SNB-19,1780 nM
same,GI50,NCI-H552,1740 nM
same,GI50,LOX IMVI; [8],2340 nM
same,EC50,KB cells,5000 nM
same,activity against several leukemia cell lines (in words),[3],significant activity
same,GI50,human tumor cell lines [4],2140 nM
same,GI50,NCI-H23; [8],1050 nM
same,GI50,SW-620,2190 nM
same,GI50,MDA-N; [8],933 nM
same,IC50,L-1210,0.32 µg/mL
same,GI50,SF-539,2040 nM
same,IC50,MCF-7,0.09 µg/mL
same,GI50,IGROV1,2450 nM
same,melting point,,244 to 245 °C
same,IC50,CAKI-1,0.28 µg/mL
same,GI50,CCRF-CEM,1550 nM
same,IC50,P-399,< 0.1 µg/mL
"CC(=O)OC(C)c1cc2c(s1)C(=O)c1c(C(C)OC(C)=O)csc1C2=O (centres unmarked) [Compound 15, 2,7-Bis(1′-acetoxyethyl)-4,8-dihydrobenzo[1,2-b:4,5-b′]dithiophene-4,8-dione]",GI50,OVCAR-3; [9],275 nM
same,GI50,MALME-3M,186 nM
same,overall cytotoxicity / potency (in words),human tumor cell lines [5],less active in all cell lines
same,GI50,MDA-MB-435; [9],186 nM
same,GI50,HL-60(TB),67.6 nM
same,GI50,OVCAR-8,457 nM
same,potency / selectivity towards melanoma cell lines (in words),melanoma cell lines,not selective towards melanoma cell lines
same,GI50,SK-MEL-2 [6],1550 nM
same,GI50,SK-MEL-5; [9],631 nM
same,GI50,UACC-257,631 nM
same,GI50,LOX IMVI; [9],1580 nM
same,GI50,human tumor cell lines [4],1200 nM
same,GI50,HS 578T,2090 nM
same,GI50,SK-MEL-28,1660 nM
same,GI50,M14,513 nM
same,GI50,BT-549,2140 nM
same,GI50,NCI-H23; [9],871 nM
same,GI50,MDA-N; [9],214 nM
same,melting point,,180 to 182 °C
same,GI50,UACC-62,1100 nM
O=C1c2ccsc2C(=O)c2sccc21 [Compound 16],IC50,HCT-8,0.032 µg/mL
same,IC50,KB,0.05 µg/mL
same,IC50,A549,0.032 µg/mL
same,IC50,SK-MEL-2 [7],0.06 µg/mL
same,activity against several leukemia cell lines (in words),[3],significant activity
same,IC50,MCF-7,< 0.016 µg/mL
same,IC50,CAKI-1,0.11 µg/mL
